Measurements as given in ChEMBL document CHEMBL4145553, “Design, synthesis, and biological evaluation of novel amide and hydrazide based thioether analogs targeting Histone deacteylase (HDAC) enzymes” (Eur J Med Chem, 2018).
Activity calls are given as the source filed them. The rule behind the calls is not given here.

Experiments:
[1] = system: HCT-15; assay: Growth inhibition of human HCT15 cells incubated for 48 hrs by sulforhodamine B assay; type: functional; details: HCT-15, 48 h
[2] = system: OVCAR-5; assay: Growth inhibition of human OVCAR5 cells assessed as cell growth at 10^-5 M incubated for 48 hrs by sulforhodamine B assay relative to control; type: functional; details: OVCAR-5, 48 h, read-out: Activity
[3] = system: UO-31; assay: Growth inhibition of human UO31 cells assessed as cell growth at 10^-5 M incubated for 48 hrs by sulforhodamine B assay relative to control; type: functional; details: UO-31, 48 h, read-out: Activity
[4] = system: EKVX; assay: Growth inhibition of human EKVX cells incubated for 48 hrs by sulforhodamine B assay; type: functional
[5] = system: BT-549; assay: Growth inhibition of human BT549 cells assessed as cell growth at 10^-7 M incubated for 48 hrs by sulforhodamine B assay relative to control; type: functional; details: BT-549, 48 h, read-out: Activity
[6] = system: HL-60(TB); assay: Growth inhibition of human HL-60(TB) cells assessed as cell growth at 10^-6 M incubated for 48 hrs by sulforhodamine B assay relative to control; type: functional; details: HL-60, 48 h, read-out: Activity
[7] = system: HL-60; assay: Cell cycle arrest in human HL60 cells assessed as accumulation at S-phase by propidium iodide staining based flow cytometry (reference value: 24.9%); type: functional
[8] = system: COLO 205; assay: Growth inhibition of human COLO205 cells assessed as cell growth at 10^-4 M incubated for 48 hrs by sulforhodamine B assay relative to control; type: functional; details: COLO 205, 48 h, read-out: Activity
[9] = system: HL-60; assay: Induction of apoptosis in human HL60 cells assessed as increase in gammaH2ax expression by qRT-PCR method; type: functional, cell-based
[10] = system: A549; assay: Growth inhibition of human A549/ATCC cells assessed as cell growth at 10^-4 M incubated for 48 hrs by sulforhodamine B assay relative to control; type: functional; details: A549, 48 h, read-out: Activity
[11] = system: HCT-116; assay: Growth inhibition of human HCT116 cells assessed as cell growth at 10^-5 M incubated for 48 hrs by sulforhodamine B assay relative to control; type: functional; details: HCT-116, 48 h, read-out: Activity
[12] = system: HL-60; assay: Cell cycle arrest in human HL60 cells assessed as accumulation at G2-phase by propidium iodide staining based flow cytometry (reference value: 6.58%); type: functional
[13] = system: SNB-75; assay: Growth inhibition of human SNB75 cells assessed as cell growth at 10^-5 M incubated for 48 hrs by sulforhodamine B assay relative to control; type: functional; details: SNB-75, 48 h, read-out: Activity
[14] = biological target: Histone deacetylase 8 (Homo sapiens, UniProt Q9BY41); assay: Inhibition of HDAC8 (unknown origin) by ELISA
[15] = system: CAKI-1; assay: Growth inhibition of human Caki1 cells assessed as cell growth at 10^-6 M incubated for 48 hrs by sulforhodamine B assay relative to control; type: functional; details: CAKI-1, 48 h, read-out: Activity
[16] = system: MOLT-4; assay: Growth inhibition of human MOLT4 cells assessed as cell growth at 10^-6 M incubated for 48 hrs by sulforhodamine B assay relative to control; type: functional; details: MOLT-4, 48 h, read-out: Activity
[17] = system: SNB-75; assay: Growth inhibition of human SNB75 cells incubated for 48 hrs by sulforhodamine B assay; type: functional; details: SNB-75, 48 h
[18] = system: TK-10; assay: Growth inhibition of human TK10 cells assessed as cell growth at 10^-6 M incubated for 48 hrs by sulforhodamine B assay relative to control; type: functional; details: TK-10, 48 h, read-out: Activity
[19] = system: MDA-MB-468; assay: Growth inhibition of human MDA-MB-468 cells incubated for 48 hrs by sulforhodamine B assay; type: functional; details: MDA-MB-468, 48 h
[20] = system: Malme-3M; assay: Growth inhibition of human MALME-3M cells assessed as cell growth at 10^-6 M incubated for 48 hrs by sulforhodamine B assay relative to control; type: functional; details: read-out: Activity
[21] = system: Malme-3M; assay: Growth inhibition of human MALME-3M cells incubated for 48 hrs by sulforhodamine B assay; type: functional
[22] = system: NCI-H522; assay: Growth inhibition of human NCI-H522 cells assessed as cell growth at 10^-7 M incubated for 48 hrs by sulforhodamine B assay relative to control; type: functional; details: NCI-H522, 48 h, read-out: Activity
[23] = system: NCI-H226; assay: Growth inhibition of human NCI-H226 cells assessed as cell growth at 10^-5 M incubated for 48 hrs by sulforhodamine B assay relative to control; type: functional; details: NCI-H226, 48 h, read-out: Activity
[24] = system: NCI-H460; assay: Growth inhibition of human NCI-H460 cells incubated for 48 hrs by sulforhodamine B assay; type: functional; details: NCI-H460, 48 h
[25] = system: NCI-H226; assay: Growth inhibition of human NCI-H226 cells assessed as cell growth at 10^-7 M incubated for 48 hrs by sulforhodamine B assay relative to control; type: functional; details: NCI-H226, 48 h, read-out: Activity
[26] = system: MDA-MB-468; assay: Growth inhibition of human MDA-MB-468 cells assessed as cell growth at 10^-8 M incubated for 48 hrs by sulforhodamine B assay relative to control; type: functional; details: MDA-MB-468, 48 h, read-out: Activity
[27] = system: 786-0; assay: Growth inhibition of human 786-0 cells incubated for 48 hrs by sulforhodamine B assay; type: functional; details: 786-0, 48 h
[28] = system: TK-10; assay: Growth inhibition of human TK10 cells assessed as cell growth at 10^-8 M incubated for 48 hrs by sulforhodamine B assay relative to control; type: functional; details: TK-10, 48 h, read-out: Activity
[29] = system: MDA-MB-231; assay: Growth inhibition of human MDA-MB-231 cells assessed as cell growth at 10^-7 M incubated for 48 hrs by sulforhodamine B assay relative to control; type: functional; details: MDA-MB-231, 48 h, read-out: Activity
[30] = read-out: LC50 (the source's name)
[31] = read-out: pLC50 (the source's name) (converted)

Chain of Histone deacetylase 8 (Q9BY41 whole entry): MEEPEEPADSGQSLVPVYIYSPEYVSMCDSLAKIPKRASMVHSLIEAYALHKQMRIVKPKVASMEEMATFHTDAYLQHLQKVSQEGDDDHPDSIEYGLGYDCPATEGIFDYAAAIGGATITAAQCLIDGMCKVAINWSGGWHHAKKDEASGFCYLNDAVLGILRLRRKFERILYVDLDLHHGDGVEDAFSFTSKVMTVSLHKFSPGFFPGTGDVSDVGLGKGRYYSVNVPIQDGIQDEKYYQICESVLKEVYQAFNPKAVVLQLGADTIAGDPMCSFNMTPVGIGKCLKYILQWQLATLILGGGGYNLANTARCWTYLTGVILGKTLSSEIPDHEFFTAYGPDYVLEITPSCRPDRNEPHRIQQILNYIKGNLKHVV

Which GI50 ([1]; read-out: GI50) does the source give for `CCS/C(Nc1ccccc1)=C(\C#N)C(=O)N/N=C\c1ccc(Cl)cc1Cl` here?
The GI50 was 2.9 µM.

What about the CC50 [1, 30] of the same molecule?
Its CC50 is > 100 µM.

And the TGI ([1]; read-out: TGI)?
The TGI was > 100 µM.

And the GI50 ([1]; read-out: pGI50 (converted))?
Its GI50 is 2.88 µM.

And the CC50 [1, 31]?
The CC50 was > 100 µM.

What about the TGI ([1]; read-out: pTGI) of the same molecule?
Its TGI is > 100 µM.

What about the growth at 10 µM [2] of the same molecule?
The growth at 10 µM was 45%.

What about the growth at 10 µM [3] of the same molecule?
Its growth at 10 µM is 43%.

And the GI50 ([4]; read-out: GI50)?
The GI50 was 5.09 µM.

What about the CC50 [4, 30] of the same molecule?
The CC50 was > 100 µM.

What about the TGI ([4]; read-out: TGI) of the same molecule?
The TGI was > 100 µM.

And the GI50 ([4]; read-out: pGI50 (converted))?
Its GI50 is 5.13 µM.

And the CC50 [4, 31]?
The CC50 was > 100 µM.

And the TGI ([4]; read-out: pTGI)?
The TGI was > 100 µM.

And the growth at 0.1 µM [5]?
The growth at 0.1 µM was 87%.

And the growth at 1 µM [6]?
Its growth at 1 µM is 93%.

And the Activity [7]?
The Activity was 13.18%.

And the growth at 100 µM [8]?
Its growth at 100 µM is 3%.

And the Activity [9]?
The Activity was “Active”.

And the growth at 100 µM [10]?
The growth at 100 µM was 18%.

And the growth at 10 µM [11]?
Its growth at 10 µM is 7%.

What about the Activity [12] of the same molecule?
The Activity was 22.18%.

And the growth at 10 µM [13]?
The growth at 10 µM was -2%.

What about the IC50 [14] of the same molecule?
The IC50 was 0.202 µM.

What about the growth at 1 µM [15] of the same molecule?
The growth at 1 µM was 67%.

And the growth at 1 µM [16]?
Its growth at 1 µM is 84%.

And the GI50 ([17]; read-out: GI50)?
Its GI50 is 2.15 µM.

And the CC50 [17, 30]?
Its CC50 is > 100 µM.

And the TGI ([17]; read-out: TGI)?
Its TGI is 9.37 µM.

What about the GI50 ([17]; read-out: pGI50 (converted)) of the same molecule?
Its GI50 is 2.14 µM.

And the CC50 [17, 31]?
The CC50 was > 100 µM.

And the TGI ([17]; read-out: pTGI (converted))?
Its TGI is 9.33 µM.

And the growth at 1 µM [18]?
Its growth at 1 µM is 97%.

What about the GI50 ([19]; read-out: GI50) of the same molecule?
The GI50 was 2.6 µM.

What about the CC50 [19, 30] of the same molecule?
Its CC50 is > 100 µM.

And the TGI ([19]; read-out: TGI)?
The TGI was 9.19 µM.

And the GI50 ([19]; read-out: pGI50 (converted))?
Its GI50 is 2.63 µM.

What about the CC50 [19, 31] of the same molecule?
Its CC50 is > 100 µM.

And the TGI ([19]; read-out: pTGI (converted))?
The TGI was 9.12 µM.

And the growth at 1 µM [20]?
Its growth at 1 µM is 79%.

And the GI50 ([21]; read-out: GI50)?
Its GI50 is 9.3 µM.

And the CC50 [21, 30]?
The CC50 was > 100 µM.

And the TGI ([21]; read-out: TGI)?
The TGI was > 100 µM.

What about the GI50 ([21]; read-out: pGI50 (converted)) of the same molecule?
Its GI50 is 9.33 µM.

And the CC50 [21, 31]?
Its CC50 is > 100 µM.

And the TGI ([21]; read-out: pTGI)?
Its TGI is > 100 µM.

And the growth at 0.1 µM [22]?
Its growth at 0.1 µM is 82%.

What about the growth at 10 µM [23] of the same molecule?
The growth at 10 µM was 27%.

And the GI50 ([24]; read-out: GI50)?
Its GI50 is 3.16 µM.

And the LC50 ([24]; read-out: LC50)?
Its LC50 is > 100 µM.

And the TGI ([24]; read-out: TGI)?
Its TGI is > 100 µM.

And the GI50 ([24]; read-out: pGI50 (converted))?
Its GI50 is 3.16 µM.

And the LC50 ([24]; read-out: pLC50 (converted))?
Its LC50 is > 100 µM.

What about the TGI ([24]; read-out: pTGI (converted)) of the same molecule?
The TGI was > 100 µM.

And the growth at 0.1 µM [25]?
Its growth at 0.1 µM is 82%.

What about the growth at 0.01 µM [26] of the same molecule?
The growth at 0.01 µM was 108%.

What about the GI50 ([27]; read-out: GI50) of the same molecule?
Its GI50 is 3.5 µM.

And the CC50 [27, 30]?
The CC50 was > 100 µM.

And the TGI ([27]; read-out: TGI)?
Its TGI is > 100 µM.

What about the GI50 ([27]; read-out: pGI50 (converted)) of the same molecule?
Its GI50 is 3.47 µM.

And the CC50 [27, 31]?
Its CC50 is > 100 µM.

What about the TGI ([27]; read-out: pTGI) of the same molecule?
The TGI was > 100 µM.

And the growth at 0.01 µM [28]?
Its growth at 0.01 µM is 93%.

And the growth at 0.1 µM [29]?
The growth at 0.1 µM was 97%.
